ChEMBL document CHEMBL3507680, “University of Dundee, Gates Library screen for HepG2 cell viability”

test: Human HepG2 cell viability assay in 384 well format; format: toxicity, cell-based; design: dose 125 nL, time 70.5 hour; concentration not given beside the values; details: HepG2 cells, read-out: Inhibition

Structure (SMILES)	cytotoxicity at 70.5 h [%]
CC(=O)c1ccc(OCC(=O)NS(=O)(=O)c2ccc(Cl)s2)cc1	-10.1
NCC1Cc2cc(Oc3cc(F)c(CN4CCCC4)c(F)c3)ccc2O1 (configuration not stated)	-11.4
COCC1CN(Cc2cc(C)on2)Cc2cn(CC3CCCC3)nc21 (configuration not stated)	-8.99
CC(C)(O)CCc1cccc(C(=O)NCCC2CCOC2)c1 (configuration not stated)	-0.764
Cc1c(C(C)NC2CCCC2)cnn1-c1ccc(F)cc1F (configuration not stated)	0.586
COc1cccc(S(=O)(=O)N2CCOC(C)(C(N)=O)C2)c1 (configuration not stated)	-3.76
COc1ccc(C2CCN(S(=O)(=O)CCCC#N)CC2)cc1	-9.02
CC(C)(C)OC(=O)Cn1nc(C2CC2)cc(C(F)(F)F)c1=O	-2.4
O=C(CCn1cncn1)NC1CCS(=O)(=O)C1 (configuration not stated)	-11
Cn1ccnc1CN1C[C@H]2CN(S(=O)(=O)c3ccccc3)CCN2C1=O	-2.62
Cc1nc(N(C)C)nc2c1COCC21CCN(CC2CC2)C1 (configuration not stated)	5.56
COc1cccc(CN(C)Cn2nc(C(C)(C)C)ccc2=O)c1	2.69
Cc1nc(C2CCN(C(=O)c3ccc(=O)n(C)c3)CC2)c2sccn12	2.35
Cc1ccnc(C2CN(c3ncccn3)C2)n1	-12.1
CC(O)CN1CCN(C(=O)c2ccc(Br)o2)CC1 (configuration not stated)	-19.8
CCCc1cncnc1N1CCC(NCc2ccc(O)cc2)CC1	-2.53
CS(=O)(=O)CCC(=O)Nc1cnn(-c2ccccc2Cl)c1	2.48
CCOc1ccc(CN2CCN(C(=O)c3ccc(C)n3C)CC2)cc1	-0.122
COc1c(CNCc2ccnc(N3CCCCC3)c2)c(C)nn1C	24.3
CC(C)c1noc(CCC(=O)N2CCSCC2)n1	-18.8
CCc1ccc(CN(C)Cc2cnc(S(=O)(=O)CC)n2CCOC)cc1	-7.48
COc1c[nH]c(C(=O)N2CCN(c3ccc(Cl)cc3)CC2)cc1=O	20.3
Cc1ccc(CN2CCc3onc(COc4cccnc4)c3C2)s1	-26.9

Structure (SMILES)	cytotoxicity at 70.5 h [%]
COCCN1C[C@@H](C)[C@@]2(COCCN(C(=O)c3ccoc3)C2)C1	1.95
Cc1cc(CN2CCCC2c2noc(C3CC3)n2)c2ccccc2n1 (configuration not stated)	51.7
CC(C)Nc1nc2c(c(NC3CC3)n1)CCN(C(=O)C1CCOC1)CC2 (configuration not stated)	1.81
CC(O)CN1CC(C)(C)CN(C(=O)CCc2ccccc2)CC1=O (configuration not stated)	-2.42
O=C(N1CCCC1)N1CCN(c2ccc(Cl)nn2)C(=O)C1	-7.98
COc1ccc(C2CC(=O)Nc3c2cnn3C2CCCC2)cc1 (configuration not stated)	-11.1
CN(Cc1cccc(C(=O)Nc2ccnn2C)c1)CC1(C)COC1	0.785
CCc1ncc2c(n1)CN(C(=O)CC(C)NC(C)=O)C2 (configuration not stated)	-5.94
CC(C)n1ccnc1C1CCN(C(=O)c2ccc(SCCO)cc2)CC1	-8.09
CC(NC(=O)NCc1cc[nH]n1)c1ccc2c(c1)CCC(=O)N2 (configuration not stated)	-19.8
Cc1cnc(CN(C)C2CCN(Cc3ccc(Cl)s3)C2)o1 (configuration not stated)	-15.5
CC(C)c1nc(C2CCCN(C(=O)CCn3ccnc3)C2)no1 (configuration not stated)	13.6
CC(O)c1cn(CC2CCN(C(=O)CN(C)C(C)C)CC2)nn1 (configuration not stated)	-6.36
CC(C)n1ccc(CN2CCN(c3cc(NC4CC4)nc(N)n3)CC2)c1	-9
CCOc1ccc(N(C)S(=O)(=O)c2c[nH]c(C(C)C)n2)cc1	-4.89
CCCc1noc(C2CCN(S(=O)(=O)c3cccs3)CC2)n1	-2.96
CO[C@H]1CCN(Cc2cccc(C)n2)[C@@H]2CN(Cc3cccnc3)C[C@H]12	1.87
COCCN1CC(=O)N(C(C)C)C(C)(C)C1	0.521
CCc1nc(N)nc(NCCC(=O)N2CCCC2)c1C	23.5
CN1Cc2cc(F)ccc2N(CC(O)C(F)(F)F)CCC1=O (configuration not stated)	11.8
CN(C)CCN(C)C(=O)Cn1cccc2cc(-c3ccc(F)cc3)nc1-2	4.32
Oc1cc(C2CCCCN2Cc2ccsc2)nc(-c2ccncc2)n1 (configuration not stated)	-9.16
CCC(CC)C(=O)N1CCCc2c(cnn2C)C1	-1.89

Structure (SMILES)	cytotoxicity at 70.5 h [%]
Cn1ncc2c(N3CCCN4CCC[C@H]4C3)nc(C(C)(C)C)nc21	-7.18
COCC(=O)N1CCCC(Cc2cnc(-c3c(C)n[nH]c3C)cn2)C1 (configuration not stated)	0.347
CCN1CC2(CCN(CC3CCCO3)CC2)OC1=O (configuration not stated)	-2.54
CCc1nc(C2CCCN(c3ncccn3)C2)no1 (configuration not stated)	-2.54
CCc1cccc(NC(=O)N2CCn3cnc(COC)c3C2)c1	-14.2
O=C(c1cnc(O)cn1)N1C[C@@H]2CC[C@H](C1)N(Cc1ccccc1)C2	-0.665
CC(C)c1nc2n(n1)CC(NCc1nc(-c3ccsc3)no1)CC2 (configuration not stated)	-11.5
CC(C)(C)C(=O)NCCC(=O)NS(=O)(=O)c1ccc2c(c1)OCCO2	0.749
Cc1ccc(-c2cc(CNC(=O)N3CCC(N(C)C)CC3)on2)cc1	4.4
O=C1CN(Cc2cn(C3CCN(C4CSCCSC4)CC3)nn2)CCN1	-13.2
CC1C(=O)Nc2cccnc2N1S(=O)(=O)c1cc(F)cc(F)c1 (configuration not stated)	16
CC(NC(=O)c1cccc(CCC(C)(C)O)c1)c1nnc(N)s1 (configuration not stated)	30.7
Cc1cnc(-c2nc(O)c3c(n2)CN(C(=O)C2CCCO2)CC3)cn1 (configuration not stated)	-1.18
COc1cc(S(=O)(=O)N2C[C@@H](C)[C@@](C)(O)C2)c(C)cc1C	0.245
Cc1nc2c(c(NCCN3CCOCC3)n1)CCN(C)C2	32.4
CCOC(=O)[C@]12CCCN(Cc3ccsc3)C[C@H]1CN(CCOC)C2	-5.12
Cc1cccc(CN2CCC(c3nnsc3S(C)(=O)=O)CC2)n1	-4.43
CC(=O)Nc1ccc(SCC(=O)NCC2CCCO2)nn1 (configuration not stated)	-2.02
CC(=O)N1C[C@@H]2CC[C@H](C1)N(S(=O)(=O)c1ccccc1Cl)C2	-14.4
CCC(=O)Nc1ccc(F)c(S(=O)(=O)NC(C)(C)C)c1	8.07
Cn1ncc2c(=O)[nH]c(CN(Cc3cccc(F)c3)C3CC3)nc21	1.56
CS(=O)(=O)N1CC[C@]2(O)CCN(c3cc(C#N)ccn3)C[C@@H]2C1	-11.9
O=C(Nc1ccccc1)N1CC(C(=O)N2CCCC2)C2(CCOCC2)C1 (configuration not stated)	-10.8

Structure (SMILES)	cytotoxicity at 70.5 h [%]
CCn1nc(C)c(CNC(=O)NCC(C)(O)c2ccco2)c1C (configuration not stated)	-1.92
CN(C)C(=O)c1cccnc1N1CCOC(c2ccc(Cl)cc2)C1 (configuration not stated)	-12.8
O=S(=O)(c1cccs1)N1CCCC(c2nccs2)C1 (configuration not stated)	-3.29
O=C(c1csc(-c2ccco2)n1)N1CCOc2ncccc21	0.101
CNc1nc2c(s1)C(=O)CN(C(=O)NCc1ccccc1)C2	-9.93
Cc1cc(NC(=O)CN2CCN(c3nccs3)C(C)C2)on1 (configuration not stated)	-6.15
CCOc1cc(CNCc2cnc(C)cn2)c(Cl)cc1OC(C)C	3.1
CC1CCN(S(=O)(=O)N2CCCN(CC3CCCO3)CC2)CC1 (configuration not stated)	13.3
CN(C)CCN1C(=O)C[C@@H]2[C@@H]1CCN2S(=O)(=O)c1ccccc1	-12.7
Cc1ccccc1OCCN(C)Cc1noc(CC(C)C)n1	4.63
COc1cccc(-c2noc(C3CCN(Cc4ccccc4F)C3)n2)c1 (configuration not stated)	38.2
CCc1cccc(C)c1NC(=O)NCCCN(CC)S(C)(=O)=O	-3.01
Cc1[nH]c(=O)[nH]c(=O)c1CN1CCCC(CCc2ccc(F)cc2F)C1 (configuration not stated)	-9.69
COC1CCN(C(=O)Cc2csc(-c3ncccn3)n2)CC1	-3.38
CN(C)C(CNC(=O)NCCS(C)(=O)=O)c1ccco1 (configuration not stated)	-4.23
CCc1cc(=O)n(CC(=O)N2CCCC2)c(-c2ccccc2)n1	-5.29
CC(C)CN1Cc2cccc(NC(=O)Cc3ccon3)c2C1	-4.05
CCN(Cc1ccncc1)CC1(C)Cc2c(N)nc(N)nc2O1 (configuration not stated)	-2.81
Cc1cccc(NC(=O)CN2C(=O)CC(C)(C)c3ccccc32)n1	-8.87
COC(=O)c1ccc(N2CCN(C(=O)c3cnn(C)c3)C(C)C2)cc1 (configuration not stated)	16.7
O=c1c2sccc2ncn1Cc1cc(C2CC2)[nH]n1	-8.84
COC(=O)CNC(=O)CSCc1nc(O)c2cc(C(C)C)sc2n1	-14.3
COCCCN(C)C1CCCN(Cc2noc(C)n2)C1 (configuration not stated)	6.68

Structure (SMILES)	cytotoxicity at 70.5 h [%]
O=C(NC1CC1)N1CC[C@@H](O)[C@@H]1Cc1ccccc1	0.741
CCOC(=O)CC1CCCCN1C(=O)c1cc(C)on1 (configuration not stated)	-8.65
O=C(NCCN1CCc2ccccc2C1)c1scnc1Cl	-1.52
CC(=O)N(Cc1ncc(C)o1)C1CCN(CCn2cccn2)C1 (configuration not stated)	9.96
CN(C)c1cc(CNC(=O)c2ccc(Br)cc2F)ccn1	-4.97
O=C(c1cccnc1N1CCCCC1)N1CCCC(n2ccnc2)C1 (configuration not stated)	1.48
Cc1cc(C(=O)NCC(=O)NC(c2ncccc2C)C(C)C)c(C)o1 (configuration not stated)	3.7
CN(C)C(=O)CO[C@H]1CO[C@@]2(CCN(Cc3ccsc3)C2)C1	-6.3
Cc1nc(Nc2nnc(C)s2)cc(C2CCCN2C)n1 (configuration not stated)	7.92
Cc1cc(NCCc2c[nH]cn2)nc(-c2cccnc2)n1	-6.06
O=C(COC1CCCC1)N1CCC(C(O)c2ccc(F)cc2)CC1 (configuration not stated)	-8.09
O=C(c1ccno1)N1CC(c2nc(-c3ccco3)no2)C1	-1.91
CS(=O)(=O)N1C[C@@H]2COC[C@@H](CC(=O)N3CCCCO3)[C@@H]2C1	5.89
CNC(=O)[C@H]1C[C@@H]2CN(C(=O)Nc3ccccc3)C[C@H]1O2	-25.2
Cc1c(CN2CCCC(C(=O)CCc3ccccc3)C2)cc(C#N)n1C (configuration not stated)	12
CNC(=O)C1CCN(C(=O)NCCc2ccc(Cl)s2)CC1	-5.01
Cc1cnc(CNC(=O)NC2CCCN(c3ccccc3F)C2)s1 (configuration not stated)	-3.86
c1ccc(CN2CCc3ncnc(-c4cncnc4)c3CC2)nc1	21.8
O=C(c1cccc(CN2CCCC2)c1)N1CCCC(n2cncn2)C1 (configuration not stated)	16.1
CN(C)CC(C)(C)CN1CCC(c2ccnc(-c3cccc(O)c3)c2)C1 (configuration not stated)	-8.34
